# Patent US5449612A, “Process for identifying candida by means of chromogenic substances” (Serbio, priority 1990, dated 1995)
# Residues, ends and D or L forms follow the SMILES beside them. *: point of attachment. pNA = O=[N+]([O-])c1ccc(N*)cc1
# Legend:
# β-D-glucosidase = settings: Casal et al. 1983; Polachek et al. 1987; cited from earlier work
# C. krusei = assay: Diagnosis from isolated colonies on gelose 2/5; format: cell-based, Candida krusei
# Method: According to the afore-mentioned best mode of carrying out the invention, a culture medium containing the following ingredients is prepared; it is called gelose 2 below and is buffered to pH 6.0.
# According to the afore-mentioned best mode of carrying out the invention, a culture medium containing the following ingredients is prepared; it is called gelose 5 below and is buffered to pH 6.0.
# Several isolated strains of C. albicans, C. tropicalis, C. krusei, C. guillermondii, C. pseudotropicalis, C. parapsilosis, C. zeylanoides, T. glabrata and Trichosporon cutaneum were inoculated and incubated on the media of Examples 1 to 5. […] Part of the results obtained has been collated in Table VI below, where the TTC column relates to results of tests undertaken separately on a standard gelose medium containing TTC.
# Several isolated strains of C. albicans, C. tropicalis, C. krusei, C. guillermondii and T. glabrata were inoculated and incubated on the media of Example 2 [containing either the substrate N-Ac-β-D-galactosaminide-PNP of the prior art, or the substrates H-L-PropNA.AcOH (specific for C. albicans), EM-L-Phg-L-ArgpNA.AcOH (specific for T. glabrata) and H-Gly-L-Pro-L-Arg-pNA.2AcOH (specific for C. krusei)]and of Example 5 (containing the substrate H-L-Pro-pNA.AcOH).
# T. glabrata [1] = assay: Tests on substrates against T. glabrata, colour reading on buffered gelose; format: cell-based, Torulopsis glabrata; settings: pH 6; note: key: -: none; +: weak; ++: moderate; +++: intense; ++++: very intense
# Candida tropicalis = assay: Tests on substrates against Candida tropicalis, colour reading on buffered gelose; format: cell-based
# T. glabrata [2] = assay: Diagnosis from isolated colonies on gelose 2/5; format: cell-based, Torulopsis glabrata; note: key: -: none; +: weak; ++: moderate; +++: intense; ++++: very intense
# C. albicans = assay: Diagnosis from isolated colonies on gelose 2/5; format: cell-based, Candida albicans; note: key: -: none; +: weak; ++: moderate; +++: intense; ++++: very intense
# Candida albicans = assay: Tests on substrates against Candida albicans, colour reading on buffered gelose; format: cell-based; settings: Table I; medium pH 6.0, YNB, glucose, agar, gentamycin; coloration or fluorescence
# C. tropicalis = assay: Diagnosis from isolated colonies on gelose 2/5; format: cell-based, Candida tropicalis
# Candida krusei = assay: Tests on substrates against Candida krusei, colour reading on buffered gelose; format: cell-based; for reading at 24 h: key: -: none; +: weak; ++: moderate; +++: intense; ++++: very intense
# [3] = tested on: isolated strains of Candida albicans, Candida guillermondii, Candida intermedia, Candida parapsilosis, Candida pseudotropicalis, Candida stellatoidea, Candida …; settings: YEAST-IDENT, liquid medium, 4 h at 37° C.; cited from earlier work
structure (smiles),measurement,setting,value
OC[C@H]1O[C@@H](Oc2ccc3cc(Br)ccc3c2)[C@H](O)[C@@H](O)[C@@H]1O [(6-bromo-β-naphthyl)-β-D-glucopyranoside],reaction with isolated strains,β-D-glucosidase,positive reaction
N=C(N)NCCC[C@H](NC(=O)[C@@H]1CCCN1C(=O)CN)C(=O)Nc1ccc([N+](=O)[O-])cc1 [H-Gly-L-Pro-L-Arg-pNA.2AcOH] (H-Gly-Pro-Arg-pNA),Reading at t = 24 h,C. krusei,+++
same,T. GLABRATA reading at 24 h,T. glabrata [1],-
same,Specificity: interference with C. tropicalis,Candida tropicalis; Table I,(b)
same,Reading at 24 h,"Candida tropicalis; Table II, medium pH 6.0, YNB, glucose, agar, gentamycin",++++
same,C. TROPICALIS reading at 24 h,"Candida tropicalis; Table III, medium pH 6.0",++++
same,Specificity: interference with C. tropicalis,Candida tropicalis; Table IV,(a)
same,Reading at t = 24 h,T. glabrata [2],-
same,Reading at t = 24 h,C. albicans,-
same,Reading at 24 h,Candida albicans,++++
same,Reading at t = 24 h,C. tropicalis,++
same,Specificity: interference with C. krusei,Candida krusei; Table I,(c)
same,Reading at 24 h,"Candida krusei; Table IV, medium pH 6.0",++++
O=C(Nc1ccc2ccccc2c1)[C@@H]1CCCN1 [H-L-Pro-NA],reaction with isolated strains,[3],positive reaction
